One block for each compound: values may come before it.
Legend:
human EAAT1 (hEAAT1) = human EAAT1 (hEAAT1) (Homo sapiens, UniProt P43003); test: [3H]-D-Asp uptake assay, hEAAT1-HEK293 cells; format: cell-based
human EAAT2 (hEAAT2) = human EAAT2 (hEAAT2) (Homo sapiens, UniProt P43004); test: [3H]-D-Asp uptake assay, hEAAT2-HEK293 cells; format: cell-based
human EAAT3 (hEAAT3) = biological target: T1, human EAAT3 (hEAAT3) (Homo sapiens, UniProt P43005); test: [3H]-D-Asp uptake assay, hEAAT3-HEK293 cells; format: cell-based; conditions: hEAAT3 pIC50 ± S.E.M.
T1 sequence (P43005 1-524): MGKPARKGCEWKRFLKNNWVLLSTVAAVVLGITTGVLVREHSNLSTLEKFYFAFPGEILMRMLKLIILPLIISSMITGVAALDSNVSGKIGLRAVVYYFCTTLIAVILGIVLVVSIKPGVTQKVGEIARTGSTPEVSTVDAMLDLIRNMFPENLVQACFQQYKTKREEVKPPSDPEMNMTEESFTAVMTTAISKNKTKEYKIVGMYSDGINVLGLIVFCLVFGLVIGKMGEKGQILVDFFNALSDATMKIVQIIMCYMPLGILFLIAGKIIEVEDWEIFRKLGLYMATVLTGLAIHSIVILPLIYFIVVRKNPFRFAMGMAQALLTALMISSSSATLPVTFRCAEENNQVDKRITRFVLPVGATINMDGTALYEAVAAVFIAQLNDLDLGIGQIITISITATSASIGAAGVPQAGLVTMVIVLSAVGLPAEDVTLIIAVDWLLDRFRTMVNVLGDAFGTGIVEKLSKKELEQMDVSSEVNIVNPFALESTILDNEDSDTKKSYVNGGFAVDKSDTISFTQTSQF

rat EAAT4 (rEAAT4) = biological target: T2, rat EAAT4 (rEAAT4) (Rattus norvegicus, UniProt O35921); test: [3H]-D-Asp uptake assay, rEAAT4-tsA201 cells; format: cell-based
T2 sequence (O35921 1-561): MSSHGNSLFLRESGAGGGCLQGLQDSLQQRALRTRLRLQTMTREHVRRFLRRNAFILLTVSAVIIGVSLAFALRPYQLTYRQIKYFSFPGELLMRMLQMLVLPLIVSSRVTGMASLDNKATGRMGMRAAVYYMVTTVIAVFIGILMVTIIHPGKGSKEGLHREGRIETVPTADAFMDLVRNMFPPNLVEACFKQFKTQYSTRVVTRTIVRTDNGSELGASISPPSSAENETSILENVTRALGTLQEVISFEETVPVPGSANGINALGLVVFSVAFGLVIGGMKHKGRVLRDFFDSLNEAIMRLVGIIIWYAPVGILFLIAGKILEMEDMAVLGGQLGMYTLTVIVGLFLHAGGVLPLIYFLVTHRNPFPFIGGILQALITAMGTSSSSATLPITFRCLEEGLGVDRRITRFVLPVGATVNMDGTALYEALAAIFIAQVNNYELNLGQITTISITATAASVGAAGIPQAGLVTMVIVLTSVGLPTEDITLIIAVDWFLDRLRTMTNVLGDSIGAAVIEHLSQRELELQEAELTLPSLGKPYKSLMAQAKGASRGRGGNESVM

EAAT3 = conditions: cited from earlier work

Chain of human EAAT1 (hEAAT1) (P43003 whole entry, the tested form may be a part): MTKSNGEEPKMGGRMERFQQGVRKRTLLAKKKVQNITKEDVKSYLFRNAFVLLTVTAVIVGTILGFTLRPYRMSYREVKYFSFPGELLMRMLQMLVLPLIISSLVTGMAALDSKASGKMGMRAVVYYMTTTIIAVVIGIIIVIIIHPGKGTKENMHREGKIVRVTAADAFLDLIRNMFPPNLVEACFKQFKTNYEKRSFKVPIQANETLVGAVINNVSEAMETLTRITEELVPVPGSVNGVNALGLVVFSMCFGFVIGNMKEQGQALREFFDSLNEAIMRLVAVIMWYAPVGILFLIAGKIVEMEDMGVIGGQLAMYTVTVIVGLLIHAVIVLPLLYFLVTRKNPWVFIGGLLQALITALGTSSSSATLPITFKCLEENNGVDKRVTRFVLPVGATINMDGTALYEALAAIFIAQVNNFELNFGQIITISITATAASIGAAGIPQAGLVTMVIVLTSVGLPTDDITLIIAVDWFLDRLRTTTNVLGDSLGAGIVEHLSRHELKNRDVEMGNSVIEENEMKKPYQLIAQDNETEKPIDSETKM
Chain of human EAAT2 (hEAAT2) (P43004 whole entry, the tested form may be a part): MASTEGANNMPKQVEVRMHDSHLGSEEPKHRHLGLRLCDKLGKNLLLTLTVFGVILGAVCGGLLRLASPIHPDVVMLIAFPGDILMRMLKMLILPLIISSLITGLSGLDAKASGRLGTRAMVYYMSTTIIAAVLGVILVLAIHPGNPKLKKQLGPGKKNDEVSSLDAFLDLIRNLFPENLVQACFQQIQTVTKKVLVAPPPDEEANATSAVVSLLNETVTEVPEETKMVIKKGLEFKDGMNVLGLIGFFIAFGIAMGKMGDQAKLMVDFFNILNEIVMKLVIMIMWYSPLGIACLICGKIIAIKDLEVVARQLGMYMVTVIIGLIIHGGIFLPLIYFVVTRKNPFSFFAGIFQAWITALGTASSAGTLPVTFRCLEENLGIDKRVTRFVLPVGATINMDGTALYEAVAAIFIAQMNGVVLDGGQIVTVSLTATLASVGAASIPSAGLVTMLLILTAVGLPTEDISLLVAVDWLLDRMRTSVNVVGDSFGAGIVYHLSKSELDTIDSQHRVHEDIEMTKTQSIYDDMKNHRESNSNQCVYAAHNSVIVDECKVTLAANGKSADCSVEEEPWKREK

SMILES: C#CCO[C@H](C(=O)O)[C@@H](N)C(=O)O (racemic) [DL-erythro-19c, (DL-erythro)-3-(Prop-2-yn-1-yloxy)aspartate]
IC50 (human EAAT1 (hEAAT1); hEAAT1 IC50, [3H]-D-Asp uptake, HEK293 cells): 99 µM
IC50 (human EAAT2 (hEAAT2); hEAAT2 IC50, [3H]-D-Asp uptake, HEK293 cells): 82 µM
IC50 (human EAAT3 (hEAAT3)): 28.2 µM
IC50 (rat EAAT4 (rEAAT4)): ~100 µM

SMILES: N[C@H](C(=O)O)[C@H](Cc1ccccc1)C(=O)O [compound 4, L-threo-3-benzylaspartate]
preference as an inhibitor for EAAT3 over EAAT1 and EAAT2 (EAAT3): 10 fold

The remaining lines, values ahead:

IC50 (human EAAT3 (hEAAT3)): 3.72 µM
IC50 (rat EAAT4 (rEAAT4)): 15.8 µM
SMILES: N[C@H](C(=O)O)[C@H](OCC1CC1)C(=O)O (racemic) [DL-threo-19a, (DL-threo)-3-(Cyclopropylmethoxy)aspartate]

IC50 (rat EAAT4 (rEAAT4)): 4.27 µM
SMILES: N[C@H](C(=O)O)[C@H](OCc1ccsc1)C(=O)O (racemic) [DL-threo-19b, (DL-threo)-3-(Thiophen-3-ylmethoxy)aspartate]

fold increased IC50 at hEAAT1 relative to L-TFB-TBOA (human EAAT1 (hEAAT1); versus L-TFB-TBOA (3a)): 5–10 fold
fold increased IC50 at hEAAT2 relative to L-TFB-TBOA (human EAAT2 (hEAAT2); versus L-TFB-TBOA (3a)): 5–10 fold
fold increased IC50 at rEAAT4 relative to L-TFB-TBOA (rat EAAT4 (rEAAT4); versus L-TFB-TBOA (3a)): 5–10 fold
SMILES: N[C@H](C(=O)O)[C@H](OCc1cccc(NC(=O)Cc2ccc(C(F)(F)F)cc2)c1)C(=O)O [3d]
